Converted amounts (≈) assume the structure as drawn. Residues, ends and D or L forms follow the SMILES beside them.
Legend:
Assay type in all cases: cell-based
[1] = tested on: E. faecium 1042
Method: (§1) Standard strains included S. aureus ATCC33592, S. aureus CICC25138, and Salmonella enterica ATCC14028, which were purchased from the China Center of Industrial Culture Collection (CICC). Standard strains including E.coli CMCC44102, Salmonella enterica CMCC50071, and S. aureus CMCC26003 were purchased from the National Center for Medical Culture Collections (CMCC). […] All experiments using the above strains were carried out in a BSL‐2 laboratory. The clinical laboratory of Qilu Hospital detected bacterial resistance to various antibiotics. All strains were streaked on Nutrient Broth (NB) agar medium and incubated overnight at 37°C.
(§2) The antimicrobial activity of the peptides was examined in sterile 96‐well plates using the broth microdilution according to the CLSI standard. The colonies were suspended in saline solution, the turbidity was adjusted to McFarland 0.5 to reach a bacterial concentration of 10^8 CFU/mL, and again diluted 100 times for the inhibition test. Then, 50 µL of bacterial suspension at 1 × 10^6 CFU/mL was incubated with the same volume of different concentrations of peptide solution [serial twofold dilutions in Mueller–Hinton Broth (Hopebio)]. […] All experiments were performed with three independent replicates.

[2] = tested on: E. faecium 21
Method: as §1, §2

[3] = tested on: E.coli 110
Method: as §1, §2

[4] = tested on: E.coli 208
Method: as §1, §2

[5] = tested on: E.coli CMCC44102
Method: as §1, §2

[6] = tested on: P. aeruginosa 119
Method: as §1, §2

[7] = tested on: S. aureus 103
Method: as §1, §2

[8] = tested on: S. aureus 129
Method: as §1, §2

[9] = tested on: S. aureus ATCC33592
Method: as §1, §2

[10] = tested on: S. aureus CICC25138
Method: as §1, §2

[11] = tested on: S. aureus CMCC26003
Method: as §1, §2

[12] = tested on: K. pneumoniae 7713
Method: as §1, §2

[13] = tested on: P. aeruginosa 112
Method: as §1, §2

[14] = tested on: P. aeruginosa 116
Method: as §1, §2

Row | SMILES | MIC (μg/mL) E. faecium 1042 [1] [µg/mL] | MIC (μg/mL) E. faecium 21 [2] [µg/mL] | MIC (μg/mL) E.coli 110 [3] [µg/mL] | MIC (μg/mL) E.coli 208 [4] [µg/mL] | MIC (μg/mL) E.coli CMCC44102 [5] [µg/mL] | MIC (μg/mL) P. aeruginosa 119 [6] [µg/mL] | MIC (μg/mL) S. aureus 103 [7] [µg/mL] | MIC (μg/mL) S. aureus 129 [8] [µg/mL] | MIC (μg/mL) S. aureus ATCC33592 [9] [µg/mL] | MIC (μg/mL) S. aureus CICC25138 [10] [µg/mL] | MIC (μg/mL) S. aureus CMCC26003 [11] [µg/mL] | MIC (μg/mL) K. pneumoniae 7713 [12] [µg/mL] | MIC (μg/mL) P. aeruginosa 112 [13] [µg/mL] | MIC (μg/mL) P. aeruginosa 116 [14] [µg/mL]
1 | CC[C@H](C)[C@H](NC(=O)[C@H](CC(C)C)NC(=O)[C@@H](NC(=O)[C@H](C)NC(=O)[C@@H](N)CC(C)C)C(C)C)C(=O)N[C@@H](Cc1ccccc1)C(=O)N[C@H](C(=O)N[C@@H](CCCNC(=N)N)C(=O)N[C@@H](CCCNC(=N)N)C(=O)N[C@@H](CCCCN)C(=O)N[C@@H](CCC(N)=O)C(=O)N[C@@H](CC(C)C)C(N)=O)C(C)C [QLX-3DV-17] (H-LAVLIFVRRKQL-NH2) | 8 (≈ 5.5 µM) | 16 (≈ 11 µM) | 32 (≈ 22 µM) | 16 (≈ 11 µM) | 8 (≈ 5.5 µM) | 64 (≈ 44 µM) | 32 (≈ 22 µM) | 16 (≈ 11 µM) | 64 (≈ 44 µM) | 32 (≈ 22 µM) | 4 (≈ 2.75 µM) | – | – | –
2 | CC[C@H](C)[C@H](NC(=O)[C@H](Cc1c[nH]c2ccccc12)NC(=O)[C@@H]1CCCN1C(=O)[C@H](CC(C)C)NC(=O)[C@H](CCCCN)NC(=O)[C@H](Cc1c[nH]c2ccccc12)NC(=O)[C@H](C)NC(=O)[C@H](CCCNC(=N)N)NC(=O)[C@H](CCC(N)=O)NC(=O)[C@H](CCC(N)=O)NC(=O)[C@@H](N)Cc1ccc(O)cc1)C(=O)N[C@@H](CC(C)C)C(=O)N[C@@H](CCCNC(=N)N)C(=O)N[C@@H](Cc1ccccc1)C(=O)N[C@@H](CC(C)C)C(=O)N[C@@H](CCCNC(=N)N)C(=O)N[C@@H](CC(C)C)C(N)=O [QLX-3DV-18] (H-YQQRAWKLPWILRFLRL-NH2) | 8 (≈ 3.5 µM) | 8 (≈ 3.5 µM) | 32 (≈ 14 µM) | 8 (≈ 3.5 µM) | 16 (≈ 7 µM) | 64 (≈ 28 µM) | 16 (≈ 7 µM) | 32 (≈ 14 µM) | – | 16 (≈ 7 µM) | 16 (≈ 7 µM) | 64 (≈ 28 µM) | 8 (≈ 3.5 µM) | –
3 | CC[C@H](C)[C@H](N)C(=O)N[C@H](C(=O)N[C@H](C(=O)N[C@@H](CCCNC(=N)N)C(=O)N[C@@H](Cc1ccccc1)C(=O)N[C@@H](CC(C)C)C(=O)N[C@@H](CCCCN)C(=O)N1CCC[C@H]1C(=O)N[C@@H](CCCCN)C(=O)N[C@@H](CC(C)C)C(=O)N[C@@H](CC(C)C)C(=O)N[C@@H](CCCCN)C(=O)N[C@@H](C)C(=O)N[C@@H](CC(C)C)C(=O)N[C@@H](CCCCN)C(N)=O)[C@@H](C)CC)C(C)C [QLX-3DV-19] (H-IVIRFLKPKLLKALK-NH2) | – | 16 (≈ 8.99 µM) | 8 (≈ 4.5 µM) | 32 (≈ 18 µM) | 16 (≈ 8.99 µM) | 128 (≈ 71.9 µM) | 64 (≈ 36 µM) | 128 (≈ 71.9 µM) | 128 (≈ 71.9 µM) | 128 (≈ 71.9 µM) | 4 (≈ 2.25 µM) | 32 (≈ 18 µM) | 16 (≈ 8.99 µM) | 32 (≈ 18 µM)
4 | CC[C@H](C)[C@H](N)C(=O)N[C@@H](CCCNC(=N)N)C(=O)N1CCC[C@H]1C(=O)N[C@@H](CC(C)C)C(=O)N[C@H](C(=O)N[C@@H](CCC(N)=O)C(=O)N1CCC[C@H]1C(=O)N[C@@H](CCCNC(=N)N)C(=O)N[C@@H](Cc1ccc(O)cc1)C(=O)N[C@@H](CCCNC(=N)N)C(=O)N[C@@H](Cc1ccccc1)C(=O)N[C@@H](Cc1ccc(O)cc1)C(=O)N1CCC[C@H]1C(=O)N[C@@H](CCCNC(=N)N)C(=O)N[C@@H](CCCCN)C(=O)N[C@@H](CCCNC(=N)N)C(=O)N[C@@H](CC(C)C)C(N)=O)C(C)C [QLX-3DV-20] (H-IRPLVQPRYRFYPRKRL-NH2) | 64 (≈ 28.3 µM) | 64 (≈ 28.3 µM) | 32 (≈ 14.2 µM) | 16 (≈ 7.09 µM) | 16 (≈ 7.09 µM) | – | – | 64 (≈ 28.3 µM) | – | – | 16 (≈ 7.09 µM) | 64 (≈ 28.3 µM) | 32 (≈ 14.2 µM) | –
